Experimental data as given in US20080014186A1, “Hla-A24 or Hla-A2 Binding Peptides of Parathyroid Hormone-Related Protein” (GREEN PEPTIDE CO., LTD., priority 2004, published 2008).

What was measured:
[1] = test system: IgG in plasma of HLA-A2^+ healthy donors and prostate cancer patients; assay: Peptide-specific IgG in plasma by ELISA (HLA-A2-binding PTHrP peptides); set-up: species or system human; details: for IgG reactive to the peptide in plasma (difference of OD): 1:100-diluted plasma
Procedure: Peptide-specific IgG levels in the plasma were measured by ELISA, as previously reported. In brief, peptide (20 μg/well)-immobilized plates were blocked with Block Ace (Yukijirushi, Tokyo, Japan) and washed with 0.05% Tween20-PBS, after which 100 μl/well of plasma sample diluted with 0.05% Tween20-Block Ace was added to the plate. After 2 hours incubation at 37° C., the plates were washed and further incubated for 2 hours with a 1:1000-diluted rabbit anti-human IgG (γ-chain-specific) (DAKO, Glostrup, Denmark). The plates were washed, and then 100 μl of 1:100-diluted goat anti-rabbit IgG-conjugated horseradish peroxidase (EnVision, DAKO) was added to each well, and the plates were then incubated at room temperature for 40 min. After the plates were washed once, 100 μl/well of tetramethyl benzidine substrate solution (KPL, Guildford, UK) was added, and the reaction was stopped by the addition of 1 M phosphoric acid. The values are shown as optical density (OD) units/ml, and responses to the HIV peptide were subtracted. IgG reactive to a corresponding PTHrP peptide was judged to be positive when the difference of the OD in 1:100-diluted plasma exceeded 0.05. The results that IgG reactive to either the PTHrP102-111 or the […] peptide was detected in 8 of 10 healthy donors and in 7 of 10 prostate cancers are shown in Table 2 hereinafter.
In a similar way to Example 3, it was examined whether IgGs reactive to peptides of PTHrP 42-51 and PTHrP 59-67 could be detected in the plasma of 10 healthy donors and 10 cancer patients. The cut-off value at 1:100-diluted plasma was ODO.054.

[2] = test system: PBMCs of HLA-A2^+ healthy donors and prostate cancer patients; assay: Assay for peptide-specific CTLs in PBMCs (IFN-γ ELISA, peptide-pulsed T2 cells); assay type: cell-based, human; details: for INF-γ production: T2 cells
[3] = HLA-A2^+ prostate cancer patients

With “TSTTSLELD [PTHrP 165-173, previously reported PTHrP peptide generating CTLs from HLA-A*0201 healthy donors [17], reference compound]” the “IgG reactive to the peptide in plasma (difference of OD)” value (“IgG reactive … (difference of OD)” below) ([1]; HLA-A2^+ healthy donor #1) was “— (IgG reactive to a corresponding peptide was judged to be positive when a difference of OD in a 1:100-diluted plasma was more than 0.054.)”, the “IgG reactive … (difference of OD)” value ([1]; HLA-A2^+ healthy donor #2) was “— (IgG reactive to a corresponding peptide was judged to be positive when a difference of OD in a 1:100-diluted plasma was more than 0.054.)” and the “IgG reactive … (difference of OD)” value ([1]; HLA-A2^+ healthy donor #3) was “— (IgG reactive to a corresponding peptide was judged to be positive when a difference of OD in a 1:100-diluted plasma was more than 0.054.)”. For the same sequence, the “IgG reactive … (difference of OD)” value ([1]; HLA-A2^+ healthy donor #4) was “— (IgG reactive to a corresponding peptide was judged to be positive when a difference of OD in a 1:100-diluted plasma was more than 0.054.)”, the “IgG reactive … (difference of OD)” value ([1]; HLA-A2^+ healthy donor #5) was “— (IgG reactive to a corresponding peptide was judged to be positive when a difference of OD in a 1:100-diluted plasma was more than 0.054.)” and the “IgG reactive … (difference of OD)” value ([1]; HLA-A2^+ healthy donor #6) was 0.0865 OD. The “IgG reactive … (difference of OD)” value ([1]; HLA-A2^+ healthy donor #7) was 0.089 OD, the “IgG reactive … (difference of OD)” value ([1]; HLA-A2^+ healthy donor #8) was 0.193 OD and the “IgG reactive … (difference of OD)” value ([1]; HLA-A2^+ healthy donor #9) was 0.0925 OD. For the same sequence, the “IgG reactive … (difference of OD)” value ([1]; HLA-A2^+ healthy donor #10) was 0.099 OD, the “Total (IgG-positive donors / donors tested)” value ([1]; HLA-A2^+ healthy donors) was 5/10 and the “IgG reactive … (difference of OD)” value ([1]; HLA-A2^+ prostate cancer patient #1) was “— (IgG reactive to a corresponding peptide was judged to be positive when a difference of OD in a 1:100-diluted plasma was more than 0.054.)”. The “IgG reactive … (difference of OD)” value ([1]; HLA-A2^+ prostate cancer patient #2) was “— (IgG reactive to a corresponding peptide was judged to be positive when a difference of OD in a 1:100-diluted plasma was more than 0.054.)”, the “IgG reactive … (difference of OD)” value ([1]; HLA-A2^+ prostate cancer patient #3) was 0.078 OD and the “IgG reactive … (difference of OD)” value ([1]; HLA-A2^+ prostate cancer patient #4) was “— (IgG reactive to a corresponding peptide was judged to be positive when a difference of OD in a 1:100-diluted plasma was more than 0.054.)”. For the same sequence, the “IgG reactive … (difference of OD)” value ([1]; HLA-A2^+ prostate cancer patient #5) was “— (IgG reactive to a corresponding peptide was judged to be positive when a difference of OD in a 1:100-diluted plasma was more than 0.054.)”, the “IgG reactive … (difference of OD)” value ([1]; HLA-A2^+ prostate cancer patient #6) was “— (IgG reactive to a corresponding peptide was judged to be positive when a difference of OD in a 1:100-diluted plasma was more than 0.054.)” and the “IgG reactive … (difference of OD)” value ([1]; HLA-A2^+ prostate cancer patient #7) was “— (IgG reactive to a corresponding peptide was judged to be positive when a difference of OD in a 1:100-diluted plasma was more than 0.054.)”. The “IgG reactive … (difference of OD)” value ([1]; HLA-A2^+ prostate cancer patient #8) was “— (IgG reactive to a corresponding peptide was judged to be positive when a difference of OD in a 1:100-diluted plasma was more than 0.054.)”, the “IgG reactive … (difference of OD)” value ([1]; HLA-A2^+ prostate cancer patient #9) was “— (IgG reactive to a corresponding peptide was judged to be positive when a difference of OD in a 1:100-diluted plasma was more than 0.054.)” and the “IgG reactive … (difference of OD)” value ([1]; HLA-A2^+ prostate cancer patient #10) was 0.1515 OD. The “Total (IgG-positive patients / patients tested)” value [1, 3] was 2/10, the INF-γ production ([2]; HLA-A2^+ healthy donor #1 (A0201)) was 0 pg/mL and the INF-γ production ([2]; HLA-A2^+ healthy donor #2 (A0201)) was 222 pg/mL. For the same sequence, the INF-γ production ([2]; HLA-A2^+ healthy donor #3 (A0201)) was 0 pg/mL, the INF-γ production ([2]; HLA-A2^+ healthy donor #4 (A0201)) was 294 pg/mL and the INF-γ production ([2]; HLA-A2^+ healthy donor #5 (A0206)) was 0 pg/mL. For the same sequence, the INF-γ production ([2]; HLA-A2^+ healthy donor #6 (A0206)) was 0 pg/mL, the INF-γ production ([2]; HLA-A2^+ healthy donor #7 (A0206)) was 27 pg/mL and the INF-γ production ([2]; HLA-A2^+ healthy donor #8 (A0206)) was 325 pg/mL. For the same sequence, the INF-γ production ([2]; HLA-A2^+ healthy donor #9 (A0206)) was 395 pg/mL, the INF-γ production ([2]; HLA-A2^+ healthy donor #10 (A0207)) was 46 pg/mL and the “induced peptide-specific CTLs, number of donors” value ([2]; HLA-A2^+ healthy donors) was 4 of 10. For the same sequence, the “Total (donors with significant peptide-specific IFN-γ production / donors tested)” value ([2]; HLA-A2^+ healthy donors, p < 0.05) was 4/10, the INF-γ production ([2]; HLA-A2^+ prostate cancer patient #1 (A0206)) was 202 pg/mL and the INF-γ production ([2]; HLA-A2^+ prostate cancer patient #2 (A0210)) was 26 pg/mL. It also gave an INF-γ production ([2]; HLA-A2^+ prostate cancer patient #3 (A0210)) of 60 pg/mL, an INF-γ production ([2]; HLA-A2^+ prostate cancer patient #4 (A0206)) of 151 pg/mL and an INF-γ production ([2]; HLA-A2^+ prostate cancer patient #5 (A0206)) of 103 pg/mL. It also gave an INF-γ production ([2]; HLA-A2^+ prostate cancer patient #6 (A0207)) of 0 pg/mL, an INF-γ production ([2]; HLA-A2^+ prostate cancer patient #7 (A0206)) of 0 pg/mL and an INF-γ production ([2]; HLA-A2^+ prostate cancer patient #8 (A0206)) of 80 pg/mL. The INF-γ production ([2]; HLA-A2^+ prostate cancer patient #9 (A0201)) was 0 pg/mL, the INF-γ production ([2]; HLA-A2^+ prostate cancer patient #10 (A0201)) was 24 pg/mL and the “induced peptide-specific CTLs (peptide-specific IFN-γ production), number of patients” value [2, 3] was 3 of 10. The “Total (patients with significant peptide-specific IFN-γ production / patients tested)” value ([2]; HLA-A2^+ prostate cancer patients, p < 0.05) was 3/10.
